Measurements from ChEMBL document CHEMBL3885881, “DrugMatrix”.

Species on record: Rattus norvegicus
Experiment: DrugMatrix - Regimen: Daily Repeat
Assay type: toxicity, organism-based, Sprague-Dawley
Design: regimen Daily Repeat, gender Male, age 6-8 weeks
Details: in vivo, po, route oral GAVAGE, […]; for ABSOLUTE BASOPHIL / ABSOLUTE EOSINOPHIL / ABSOLUTE LYMPHOCYTE / ABSOLUTE MONOCYTE / ABSOLUTE SEGMENTED NEUTROPHIL / BASOPHIL / EOSINOPHIL / ERYTHROCYTE COUNT / HEMATOCRIT / HEMOGLOBIN / LEUKOCYTE COUNT / LYMPHOCYTE / MEAN CORPUSCULAR HEMOGLOBIN / MEAN CORPUSCULAR HEMOGLOBIN CONCENTRATION / MEAN CORPUSCULAR VOLUME / MONOCYTE / NEUTROPHIL / NUCLEATED RED BLOOD CELLS / PLATELET COUNT: tissue Blood; for ALANINE AMINOTRANSFERASE / ALBUMIN / ALKALINE PHOSPHATASE / ASPARTATE AMINOTRANSFERASE / BLOOD UREA NITROGEN / CARBON DIOXIDE / CHLORIDE / CHOLESTEROL / CREATINE PHOSPHOKINASE / CREATININE / GLUCOSE / LACTATE DEHYDROGENASE / LIPASE / PHOSPHORUS / POTASSIUM / SODIUM / TOTAL BILIRUBIN / TOTAL PROTEIN / URIC ACID: tissue Plasma
[1] = 0 mg/kg, 72 h, dose level Control, time 3 day
[2] = 0 mg/kg, 120 h, dose level Control, time 5 day
[3] = 30 mg/kg, 72 h, dose level Low, time 3 day

## CCC(C)n1ncn(-c2ccc(N3CCN(c4ccc(OCC5COC(Cn6cncn6)(c6ccc(Cl)cc6Cl)O5)cc4)CC3)cc2)c1=O (centres undefined) [ITRACONAZOLE]
[1]
  ABSOLUTE BASOPHIL: 0 CELLS/uL
  ABSOLUTE EOSINOPHIL: 104.17 CELLS/uL
  ABSOLUTE LYMPHOCYTE: 14547 CELLS/uL
  ABSOLUTE MONOCYTE: 292 CELLS/uL
  ABSOLUTE SEGMENTED NEUTROPHIL: 1640.17 CELLS/uL
  BASOPHIL: 0%
  EOSINOPHIL: 0.67%
  ERYTHROCYTE COUNT: 5.35 x10E6/uL
  HEMATOCRIT: 33.67%
  HEMOGLOBIN: 13.38 G/DL
  LEUKOCYTE COUNT: 16.58 x10E3/uL
  LYMPHOCYTE: 87.5%
  MEAN CORPUSCULAR HEMOGLOBIN: 25.05 pg
  MEAN CORPUSCULAR HEMOGLOBIN CONCENTRATION: 39.78 G/DL
  MEAN CORPUSCULAR VOLUME: 62.97 fL
  MONOCYTE: 1.83%
  NEUTROPHIL: 10%
  NUCLEATED RED BLOOD CELLS: 0 /100WBC
  PLATELET COUNT: 1274.5 x10E3/uL
  ALANINE AMINOTRANSFERASE: 76.83 u/L
  ALBUMIN: 3.97 G/DL
  ALKALINE PHOSPHATASE: 347 u/L
  ASPARTATE AMINOTRANSFERASE: 97.17 u/L
  BLOOD UREA NITROGEN: 14.33 mg/dL
  CARBON DIOXIDE: 25.5 mmol/L
  CHLORIDE: 100.33 MEQ/L
  CHOLESTEROL: 68.67 mg/dL
  CREATINE PHOSPHOKINASE: 659.17 u/L
  CREATININE: 0.32 mg/dL
  GLUCOSE: 160.67 mg/dL
  LACTATE DEHYDROGENASE: 271.5 u/L
  LIPASE: 11.67 u/L
  PHOSPHORUS: 10.65 mg/dL
  POTASSIUM: 5.95 MEQ/L
  SODIUM: 139.65 MEQ/L
  TOTAL BILIRUBIN: 0.2 mg/dL
  TOTAL PROTEIN: 5.72 G/DL
  URIC ACID: 1.37 mg/dL
[2]
  ABSOLUTE BASOPHIL: 0 CELLS/uL
  ABSOLUTE EOSINOPHIL: 331.5 CELLS/uL
  ABSOLUTE LYMPHOCYTE: 15021.67 CELLS/uL
  ABSOLUTE MONOCYTE: 376.5 CELLS/uL
  ABSOLUTE SEGMENTED NEUTROPHIL: 3070.33 CELLS/uL
  BASOPHIL: 0%
  EOSINOPHIL: 1.83%
  ERYTHROCYTE COUNT: 5.24 x10E6/uL
  HEMATOCRIT: 33.22%
  HEMOGLOBIN: 13.2 G/DL
  LEUKOCYTE COUNT: 18.8 x10E3/uL
  LYMPHOCYTE: 79.67%
  MEAN CORPUSCULAR HEMOGLOBIN: 25.17 pg
  MEAN CORPUSCULAR HEMOGLOBIN CONCENTRATION: 39.73 G/DL
  MEAN CORPUSCULAR VOLUME: 63.38 fL
  MONOCYTE: 2%
  NEUTROPHIL: 16.5%
  NUCLEATED RED BLOOD CELLS: 0 /100WBC
  PLATELET COUNT: 1142.67 x10E3/uL
  ALANINE AMINOTRANSFERASE: 52.5 u/L
  ALBUMIN: 3.9 G/DL
  ALKALINE PHOSPHATASE: 284.5 u/L
  ASPARTATE AMINOTRANSFERASE: 81.33 u/L
  BLOOD UREA NITROGEN: 16 mg/dL
  CARBON DIOXIDE: 25.33 mmol/L
  CHLORIDE: 99.5 MEQ/L
  CHOLESTEROL: 74.83 mg/dL
  CREATINE PHOSPHOKINASE: 448.33 u/L
  CREATININE: 0.37 mg/dL
  GLUCOSE: 164.17 mg/dL
  LACTATE DEHYDROGENASE: 290.67 u/L
  LIPASE: 6.83 u/L
  PHOSPHORUS: 11.5 mg/dL
  POTASSIUM: 6.28 MEQ/L
  SODIUM: 139.5 MEQ/L
  TOTAL BILIRUBIN: 0.13 mg/dL
  TOTAL PROTEIN: 5.55 G/DL
  URIC ACID: 1.12 mg/dL
[3]
  ABSOLUTE BASOPHIL: 0 CELLS/uL
  ABSOLUTE EOSINOPHIL: 60 CELLS/uL
  ABSOLUTE LYMPHOCYTE: 9936.67 CELLS/uL
  ABSOLUTE MONOCYTE: 160.67 CELLS/uL
  ABSOLUTE SEGMENTED NEUTROPHIL: 876 CELLS/uL
  BASOPHIL: 0%
  EOSINOPHIL: 0.67%
  ERYTHROCYTE COUNT: 6.06 x10E6/uL
  HEMATOCRIT: 37.97%
  HEMOGLOBIN: 14.57 G/DL
  LEUKOCYTE COUNT: 11.03 x10E3/uL
  LYMPHOCYTE: 89.67%
  MEAN CORPUSCULAR HEMOGLOBIN: 24 pg
  MEAN CORPUSCULAR HEMOGLOBIN CONCENTRATION: 38.4 G/DL
  MEAN CORPUSCULAR VOLUME: 62.6 fL
  MONOCYTE: 1.33%
  NEUTROPHIL: 8.33%
  NUCLEATED RED BLOOD CELLS: 0 /100WBC
  PLATELET COUNT: 1209.33 x10E3/uL
  ALANINE AMINOTRANSFERASE: 56 u/L
  ALBUMIN: 4.23 G/DL
  ALKALINE PHOSPHATASE: 522.33 u/L
  ASPARTATE AMINOTRANSFERASE: 74.33 u/L
  BLOOD UREA NITROGEN: 11 mg/dL
  CARBON DIOXIDE: 22.67 mmol/L
  CHLORIDE: 100.33 MEQ/L
  CHOLESTEROL: 56 mg/dL
  CREATINE PHOSPHOKINASE: 240 u/L
  CREATININE: 0.11 mg/dL
  GLUCOSE: 184.33 mg/dL
  LACTATE DEHYDROGENASE: 106 u/L
  LIPASE: 10 u/L
  PHOSPHORUS: 12.87 mg/dL
  POTASSIUM: 6.49 MEQ/L
  SODIUM: 141.73 MEQ/L
  TOTAL BILIRUBIN: 0.17 mg/dL
  TOTAL PROTEIN: 6.4 G/DL
  URIC ACID: 1.97 mg/dL
